This note sets out measurements from ChEMBL document CHEMBL4196051, “Pyrazole-pyrazoline as promising novel antimalarial agents: A mechanistic study” (Eur J Med Chem, 2018).

Data set [1] can be described thus: Resistance Index, ratio of EC50 for chloroquine-resistant Plasmodium falciparum RKL9 to EC50 for chloroquine-sensitive Plasmodium falciparum 3D7. In kind it is functional.
A short description of data set [2]: Selectivity index, ratio of CC50 for African green monkey Vero cells to EC50 for chloroquine-sensitive Plasmodium falciparum 3D7. In kind it is toxicity. The conditions noted are these: read-out: Ratio CC50/EC50.
In data set [3] the test system is Heme. Description: Binding affinity to monomeric heme in DMSO/HEPES buffer solution at pH 7.4 by titration analysis.
Data set [4] concerns Plasmodium berghei. Description: Antimalarial activity against Plasmodium berghei NK65 infected in Swiss albino mouse assessed as mean survival days at 50 mg/kg, po treated up to day 3 measured over 30 days (reference value: 7.2 days). In kind it is functional.
The subject of data set [5] is Heme. Description: Binding affinity to monomeric heme in DMSO/HEPES buffer solution at pH 5.6 by titration analysis.
In data set [6] the test system is Plasmodium berghei. Description: Antimalarial activity against Plasmodium berghei NK65 infected in Swiss albino mouse assessed as reduction in parasitemia at 25 mg/kg, po treated up to day 3 measured at day 4 by Giemsa-staining based microscopic analysis relative to control. In kind it is functional. On the set-up: scale not given: the % may be the effect or the level left.

Data set [7] is described as follows: Cytotoxicity against African green monkey Vero cells assessed as reduction in cell viability after 72 hrs by MTT assay. Particulars: chlorocebus sabaeus. In kind it is cell-based. (Formazan colour is commonly taken as a measure of viable cells.)
A short description of data set [8]: Selectivity index, ratio of CC50 for African green monkey Vero cells to EC50 for chloroquine-resistant Plasmodium falciparum RKL9. The format is toxicity. The conditions noted are these: read-out: Ratio CC50/EC50.
The test system of data set [9] is mu-oxodimeric heme. Nature of the data set: Binding affinity to mu-oxodimeric heme in 0.1M NaOH solution at pH 5.8 by titration analysis.
Data set [10] concerns Plasmodium berghei. Nature of the data set: Antimalarial activity against Plasmodium berghei NK65 infected in Swiss albino mouse assessed as reduction in parasitemia at 50 mg/kg, po treated up to day 3 measured at day 4 by Giemsa-staining based microscopic analysis relative to control. In kind it is functional. On the set-up: scale not given: the % may be the effect or the level left.

The test system of data set [11] is Plasmodium falciparum. Description: Antimalarial activity against chloroquine-sensitive Plasmodium falciparum 3D7 infected in red blood cells assessed as reduction in mature schizonts formation after 24 hrs by Giemsa-staining based assay. In kind it is functional, organism-based. Particulars: 3D7, 24 h.
Data set [12] relates to Plasmodium berghei. Nature of the data set: Antimalarial activity against Plasmodium berghei NK65 infected in Swiss albino mouse assessed as mean survival days at 25 mg/kg, po treated up to day 3 measured over 30 days (reference value: 7.2 days). The format is functional.
The test system of data set [13] is Plasmodium falciparum. Nature of the data set: Antimalarial activity against chloroquine-resistant Plasmodium falciparum RKL9 infected in red blood cells assessed as reduction in mature schizonts formation after 24 hrs by Giemsa-staining based assay. In kind it is functional, organism-based. Particulars: RKL9, 24 h.
The subject of data set [14] is Plasmodium falciparum. Nature of the data set: Antimalarial activity against chloroquine-resistant Plasmodium falciparum W2 after 48 hrs by LDH assay. The conditions noted are these: W2, 48 h. In kind it is functional, organism-based.
The subject of data set [15] is Heme. Description: Inhibition of heme crystal growth.
For data set [16], the system named is Plasmodium falciparum. Nature of the data set: Antimalarial activity against Plasmodium falciparum. The format is functional, organism-based.
For data set [17], the system named is Plasmodium berghei. Nature of the data set: Antimalarial activity against Plasmodium berghei NK65 infected in Swiss albino mouse assessed as mean survival days at 5 mg/kg, po treated up to day 3 measured over 30 days (reference value: 7.2 days). The format is functional.
Data set [18] has as its system Plasmodium berghei. Nature of the data set: Antimalarial activity against Plasmodium berghei NK65 infected in Swiss albino mouse assessed as reduction in parasitemia at 5 mg/kg, po treated up to day 3 measured at day 4 by Giemsa-staining based microscopic analysis relative to control. In kind it is functional. Also noted: scale not given: the % may be the effect or the level left.

The test system of data set [19] is Plasmodium falciparum. Nature of the data set: Antimalarial activity against chloroquine-sensitive Plasmodium falciparum 3D7 infected in red blood cells assessed as reduction in mature schizonts formation after 72 hrs by Giemsa-staining based assay. The format is functional, organism-based. Particulars: 3D7, 72 h.

Where only a bound is given, the exact number is not on record here.

On to `COc1ccc(C2=NN(c3ccc(S(N)(=O)=O)cc3)C(c3cn(-c4ccccc4)nc3-c3ccc(C)cc3)C2)cc1` (configuration not stated), for which the Ratio EC50 in data set [1] was 0.94. Moreover, the selectivity ratio in data set [2] and in [8] was over 46.8 in each case. For the same compound, the log K turned out to be 5.12 in [3], 5.58 in [5] and 5.19 in data set [9]. Besides, the MSD in [4] amounted to 19.8 days; in data set [12], 13.4 days. The Activity in [6] is 68.42%; in data set [10], 82.49%. Besides, in data set [7], the CC50 (commonly the concentration giving 50% cytotoxicity) at 72 h is over 36.6 µM. Also, the values for the EC50 in data set [11] and in data set [13] were 1.38 µM and 1.31 µM, respectively.
On to `C[n+]1c2ccc(Br)cc2cc2[nH]c3ccc(Br)cc3c21`, for which the IC50 (as a rule, the concentration needed to halve the response being measured) in [14] was determined as 4 µM.
Take `NS(=O)(=O)c1ccc(N2N=C(c3ccc(O)cc3)CC2c2cn(-c3ccccc3)nc2-c2ccc(F)cc2)cc1` (configuration not stated): the Ratio EC50 in data set [1] worked out at 1.29. Further, the selectivity ratio in [2] and in data set [8] was 36.9 throughout. Further, in data set [7], the CC50 at 72 h was 32 µM. In addition, the figures for the EC50 in data set [11] and in data set [13] were 1.57 µM and 2.02 µM, respectively.
Turning to `Cc1ccc(C2=NN(c3ccc(S(N)(=O)=O)cc3)C(c3cn(-c4ccccc4)nc3-c3ccc(F)cc3)C2)cc1` (configuration not stated), the selectivity ratio in data set [2] and in data set [8] was over 73.2 throughout. For the same compound, the CC50 at 72 h in [7] is over 90.7 µM. Further, the EC50 (usually the midpoint of the concentration-response curve) in data set [11] worked out at 2.23 µM.
Take `Clc1ccc(COC(Cn2ccnc2)c2ccc(Cl)cc2Cl)c(Cl)c1` (configuration not stated) [MICONAZOLE]: inhibition in data set [15] was half-maximal at 21.4 µM (IC50).
For `Clc1ccccc1C(c1ccccc1)(c1ccccc1)n1ccnc1` [CLOTRIMAZOLE], the IC50 in data set [16] was found to be 12.9 µM.
As to `Cc1ccc(C2=NN(c3ccc(S(N)(=O)=O)cc3)C(c3cn(-c4ccccc4)nc3-c3ccc(C)cc3)C2)cc1` (configuration not stated), the Ratio EC50 in data set [1] came to 1.14. Moreover, the selectivity ratio in data set [2] and in data set [8] was over 52.8 in each case. In addition, in [7], the CC50 at 72 h is over 41.5 µM. Moreover, the values for the EC50 in data set [11] and in data set [13] were 1.43 µM and 1.64 µM, respectively.
For `COc1ccc(C2=NN(c3ccc(S(N)(=O)=O)cc3)C(c3cn(-c4ccccc4)nc3-c3ccc(F)cc3)C2)cc1` (configuration not stated), the Ratio EC50 in data set [1] is 1.44. Also, the selectivity ratio in data set [2] and in data set [8] was over 56.4 in each case. The CC50 at 72 h in data set [7] is over 53.1 µM. The EC50 in [11] was 1.65 µM; in data set [13], 2.04 µM.
Turning to `NS(=O)(=O)c1ccc(N2N=C(c3ccc(Cl)cc3)CC2c2cn(-c3ccccc3)nc2-c2ccccc2)cc1` (configuration not stated), the selectivity ratio in data set [2] and in data set [8] was over 111 in each case. In addition, in data set [7], the CC50 at 72 h is over 207 µM. Moreover, the EC50 in data set [11] stood at 3.35 µM.
Turning to `NS(=O)(=O)c1ccc(N2N=C(c3ccc(F)cc3)CC2c2cn(-c3ccccc3)nc2-c2ccccc2)cc1` (configuration not stated), the selectivity ratio in data set [2] and in data set [8] was over 225 each time. Further, the CC50 at 72 h in data set [7] was over 807 µM. In addition, the concentration giving a half-maximal response (EC50) in data set [11] is 6.67 µM.
With `COc1ccc(C2=NN(c3ccc(S(N)(=O)=O)cc3)C(c3cn(-c4ccccc4)nc3-c3ccc(OC)cc3)C2)cc1` (configuration not stated), the selectivity ratio in data set [2] and in data set [8] was 78.9 throughout. The CC50 at 72 h in data set [7] is 104 µM. The EC50 in data set [11] was determined as 2.26 µM.
As for `Cc1ccc(-c2nn(-c3ccccc3)cc2C2CC(c3ccccc3)=NN2c2ccc(S(N)(=O)=O)cc2)cc1` (configuration not stated), the selectivity ratio in [2] and in data set [8] was over 98 throughout. The CC50 at 72 h in data set [7] is over 162 µM. Moreover, in data set [11], the EC50 amounted to 2.97 µM.
For `CCN(CC)CCCC(C)Nc1ccnc2cc(Cl)ccc12` (configuration not stated) [CHLOROQUINE], the MSD in [17] is 30 days. In addition, the Activity in data set [18] was 97.1%. Besides, the results for the EC50 in data set [11] and in data set [13] were 2.97 µM and 11.2 µM, respectively.
For the compound `COc1cccc(C2=NN(c3ccc(S(N)(=O)=O)cc3)C(c3cn(-c4ccccc4)nc3-c3ccc(C)cc3)C2)c1OC` (configuration not stated), the Ratio EC50 in [1] worked out at 0.97. The selectivity ratio in data set [2] and in [8] was over 60 each time. Moreover, the CC50 at 72 h in data set [7] is over 57.4 µM. Besides, the EC50 in data set [11] came to 1.61 µM; in data set [13] it was 1.55 µM.
Regarding `NS(=O)(=O)c1ccc(N2N=C(c3ccc(Br)cc3)CC2c2cn(-c3ccccc3)nc2-c2ccc(F)cc2)cc1` (configuration not stated), the selectivity ratio in data set [2] and in [8] was 25.9 throughout. Also, in [7], the CC50 at 72 h turned out to be 49.4 µM. Also, in data set [11], the EC50 is 3.08 µM.
`COc1ccc(/C=C(\C#N)c2nc3ccccc3[nH]2)cc1`: in data set [19], the IC50 was 0.069 µM.
For `NS(=O)(=O)c1ccc(N2N=C(c3ccc(Cl)cc3)CC2c2cn(-c3ccccc3)nc2-c2ccc(Cl)cc2)cc1` (configuration not stated), the selectivity ratio in data set [2] and in data set [8] was over 99 each time. Moreover, the CC50 at 72 h in data set [7] was over 164 µM. Also, the EC50 in data set [11] is 2.8 µM.
Turning to `COc1ccc(C2=NN(c3ccc(S(N)(=O)=O)cc3)C(c3cn(-c4ccccc4)nc3-c3ccc(Cl)cc3)C2)cc1` (configuration not stated), the Ratio EC50 in [1] worked out at 1.31. The selectivity ratio in data set [2] and in data set [8] was 33.2 in each case. Besides, in [7], the 50% cytotoxic concentration (CC50) at 72 h amounted to 31.3 µM. The EC50 in data set [11] was found to be 1.61 µM; in data set [13], 2.12 µM.
Take `NS(=O)(=O)c1ccc(N2N=C(c3ccc(F)cc3)CC2c2cn(-c3ccccc3)nc2-c2ccc(F)cc2)cc1` (configuration not stated): the selectivity ratio in [2] and in data set [8] was over 212 throughout. In addition, the CC50 at 72 h in [7] is over 753 µM. The EC50 in data set [11] was found to be 6.36 µM.
With `NS(=O)(=O)c1ccc(N2N=C(c3ccc(Cl)cc3Cl)CC2c2cn(-c3ccccc3)nc2-c2ccccc2)cc1` (configuration not stated), the selectivity ratio in data set [2] and in [8] was over 162 in each case. The CC50 at 72 h in [7] was over 438 µM. For the same compound, the EC50 in data set [11] stood at 4.58 µM.
In the case of `COc1ccc(C2=NN(c3ccc(S(N)(=O)=O)cc3)C(c3cn(-c4ccccc4)nc3-c3ccccc3)C2)cc1` (configuration not stated), the Ratio EC50 in data set [1] came to 1.25. Also, the selectivity ratio in [2] and in data set [8] was 51.4 throughout. Further, the CC50 at 72 h in [7] was determined as 40.2 µM. For the same compound, the values for the EC50 in data set [11] and in data set [13] were 1.42 µM and 1.78 µM, respectively.
Regarding `NS(=O)(=O)c1ccc(N2N=C(c3ccc(O)cc3)CC2c2cn(-c3ccccc3)nc2-c2ccccc2)cc1` (configuration not stated), the selectivity ratio in data set [2] and in data set [8] was over 98 each time. In addition, the CC50 at 72 h in data set [7] was over 161 µM. Also, in [11], the EC50 came out at 3.05 µM.
